According to US20250059185A1 (Hoffmann-La Roche Inc., priority 2021, published 2025):

Biological target: MAGL (Homo sapiens (Human), UniProt Q99685)
Experiment: 2-AG assay (MAGL inhibitory activity, hydrolysis of 2-arachidonoylglycerol followed by mass spectrometry)
Type: biochemical
Settings: 50 pM MAGL protein, 15 min pre-incubation, 30 min incubation at RT
Summary of the method: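 Human MAGL (50 pM final) preincubated 15 min at RT with compound (3-fold dilutions, 12.5 μM to 0.8 pM final) in 50 mM TRIS, 1 mM EDTA, 0.01% Tween-20, 2.5% DMSO. Reaction with […] 2-AG ran 30 min at RT, then was quenched with acetonitrile containing d8-arachidonic acid. Arachidonic acid measured by SPE–triple-quad MS (negative ESI), activity from the arachidonic/d8-arachidonic acid intensity ratio.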

Chain of MAGL (Q99685 whole entry, species assumed): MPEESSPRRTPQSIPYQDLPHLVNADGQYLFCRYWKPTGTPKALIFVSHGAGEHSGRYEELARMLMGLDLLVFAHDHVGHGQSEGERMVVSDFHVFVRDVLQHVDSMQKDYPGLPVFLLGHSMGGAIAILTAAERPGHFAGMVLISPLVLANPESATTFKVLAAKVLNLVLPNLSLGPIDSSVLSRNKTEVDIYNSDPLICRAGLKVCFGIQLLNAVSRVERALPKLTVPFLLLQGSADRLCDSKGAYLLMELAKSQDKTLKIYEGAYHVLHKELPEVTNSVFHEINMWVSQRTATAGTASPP

Row | Compound | IC50 [nM]
1 | CC1c2nn(C)c(-c3cc(F)cc(F)c3)c2CCN1C(=O)c1cc(F)cc(OCC2(C(F)(F)F)CC2)c1Cl (stereo not drawn) [Example 27, [2-Chloro-5-fluoro-3-[[1-(trifluoromethyl)cyclopropyl]methoxy]phenyl]-[3-(3,5-difluorophenyl)-2,7-dimethyl-5,7-dihydro-4H-pyrazolo[3,4-c]pyridin-6-yl]methanone] | 88
2 | C[C@H]1c2nn(C)c(-c3cc(F)cc(F)c3)c2CCN1C(=O)c1cc(F)cc(CCc2c[nH]nn2)c1Cl [Example 104, [2-chloro-5-fluoro-3-[2-(JH-triazol-4-yl)ethyl]phenyl]-[(7S)-3-(3,5-difluorophenyl)-2,7-dimethyl-5,7-dihydro-4H-pyrazolo[3,4-c]pyridin-6-yl]methanone] | 42.4
3 | C[C@H]1c2nn(C)c(-c3cc(F)cc(F)c3)c2CCN1C(=O)c1cc(F)cc(-c2c[nH]c(C#N)c2)c1Cl [Example 36, 4-[2-Chloro-3-[(7S)-3-(3,5-difluorophenyl)-2,7-dimethyl-5,7-dihydro-4H-pyrazolo[3,4-c]pyridine-6-carbonyl]-5-fluoro-phenyl]-1H-pyrrole-2-carbonitrile] | 17
4 | C[C@H]1c2nn(C)c(-c3cc(F)cc(F)c3)c2CCN1C(=O)c1ccc(CCC2CNC(=O)C2)cc1Cl (stereo partly drawn) [Example 45, 4-[2-[3-Chloro-4-[(7S)-3-(3,5-difluorophenyl)-2,7-dimethyl-5,7-dihydro-4H-pyrazolo[3,4-c]pyridine-6-carbonyl]phenyl]ethyl]pyrrolidin-2-one] | 99
5 | C[C@@H]1c2nn(C)c(-c3cc(Cl)cc(C4(C(N)=O)CC4)c3)c2CCN1C(=O)c1cc(F)cc(-c2c[nH]c(C#N)c2)c1Cl [Example 72, 1-[3-chloro-5-[(7R)-6-[2-chloro-3-(5-cyano-1H-pyrrol-3-yl)-5-fluoro-benzoyl]-2,7-dimethyl-5,7-dihydro-4H-pyrazolo[3,4-c]pyridin-3-yl]phenyl]cyclopropanecarboxamide] | 62
6 | C[C@@H]1c2nn(C)c(-c3cncc(C(F)(F)F)n3)c2CCN1C(=O)c1ncn(-c2ccc[nH]c2=O)n1 [Example 96, 3-[3-[(7R)-2,7-dimethyl-3-[6-(trifluoromethyl)pyrazin-2-yl]-5,7-dihydro-4H-pyrazolo[3,4-c]pyridine-6-carbonyl]-1,2,4-triazol-1-yl]-1H-pyridin-2-one] | 1260
7 | C[C@@H]1c2nn(C)c(-c3cc(F)cc(F)c3)c2CCN1C(=O)c1cc(F)cc(OCC2CNC(=O)O2)c1Cl (single isomer, unassigned) [Example 51, 5-[[2-Chloro-3-[3-(3,5-difluorophenyl)-2,7-dimethyl-5,7-dihydro-4H-pyrazolo[3,4-c]pyridine-6-carbonyl]-5-fluoro-phenoxy]methyl]oxazolidin-2-one] | 187
8 | C[C@H]1c2nn(C)c(-c3cc(Cl)cc(C4(NS(C)(=O)=O)CC4)c3)c2CCN1C(=O)c1cc(F)cc(-c2c[nH]c(C#N)c2)c1Cl [Example 85, N-[1-[3-chloro-5-[(7S)-6-[2-chloro-3-(5-cyano-1H-pyrrol-3-yl)-5-fluoro-benzoyl]-2,7-dimethyl-5,7-dihydro-4H-pyrazolo[3,4-c]pyridin-3-yl]phenyl]cyclopropyl]methanesulfonamide] | 13.8
9 | C[C@H]1c2nn(C)c(-c3cc(F)cc(F)c3)c2CCN1C(=O)c1ncn(-c2cc(F)cnc2O)n1 [Example 34, [(7S)-3-(3,5-Difluorophenyl)-2,7-dimethyl-5,7-dihydro-4H-pyrazolo[3,4-c]pyridin-6-yl]-[1-(5-fluoro-2-hydroxy-3-pyridyl)-1,2,4-triazol-3-yl]methanone] | 149
10 | C[C@@H]1c2nn(C)c(-c3cc(Cl)cc(C4(NS(C)(=O)=O)CC4)c3)c2CCN1C(=O)c1cc(F)cc(-c2c[nH]c(C#N)c2)c1Cl [Example 86, N-[1-[3-chloro-5-[(7R)-6-[2-chloro-3-(5-cyano-1H-pyrrol-3-yl)-5-fluoro-benzoyl]-2,7-dimethyl-5,7-dihydro-4H-pyrazolo[3,4-c]pyridin-3-yl]phenyl]cyclopropyl]methanesulfonamide] | 1010
11 | CC1c2nn(C)c(-c3cc(Cl)cc(C4(NS(C)(=O)=O)CC4)c3)c2CCN1C(=O)c1cc(F)cc(-c2ccc(=O)[nH]c2)c1Cl (stereo not drawn) [Example 55, N-[1-[3-Chloro-5-[6-[2-chloro-5-fluoro-3-(6-oxo-1H-pyridin-3-yl)benzoyl]-2,7-dimethyl-5,7-dihydro-4H-pyrazolo[3,4-c]pyridin-3-yl]phenyl]cyclopropyl]methanesulfonamide] | 7
12 | C[C@@H]1c2nn(C)c(-c3cc(F)cc(F)c3)c2CCN1C(=O)c1ccc(CCC2CNC(=O)C2)cc1Cl (single isomer, unassigned) [Example 46, 4-[2-[3-Chloro-4-[3-(3,5-difluorophenyl)-2,7-dimethyl-5,7-dihydro-4H-pyrazolo[3,4-c]pyridine-6-carbonyl]phenyl]ethyl]pyrrolidin-2-one] | 258
13 | C[C@H]1c2nn(C)c(-c3cc(F)cc(F)c3)c2CCN1C(=O)c1ncn(-c2cc(Cl)cnc2O)n1 [Example 100, [1-(5-chloro-2-hydroxy-3-pyridyl)-1,2,4-triazol-3-yl]-[(7S)-3-(3,5-difluorophenyl)-2,7-dimethyl-5,7-dihydro-4H-pyrazolo[3,4-c]pyridin-6-yl]methanone] | 31.9
14 | C[C@@H]1c2nn(C)c(-c3cc(Cl)cc(C4(S(C)(=O)=O)CC4)c3)c2CCN1C(=O)c1cc(F)cc(-c2ccc(=O)[nH]c2)c1Cl [Example 74, 5-[2-chloro-3-[(7R)-3-[3-chloro-5-(1-methylsulfonylcyclopropyl)phenyl]-2,7-dimethyl-5,7-dihydro-4H-pyrazolo[3,4-c]pyridine-6-carbonyl]-5-fluoro-phenyl]-1H-pyridin-2-one] | 293
15 | COc1cccc(C(=O)N2CCc3c(nn(C)c3-c3cc(CNS(C)(=O)=O)cc(Cl)n3)C2C)c1Cl (stereo not drawn) [Example 80, N-[[2-chloro-6-[6-(2-chloro-3-methoxy-benzoyl)-2,7-dimethyl-5,7-dihydro-4H-pyrazolo[3,4-c]pyridin-3-yl]-4-pyridyl]methyl]methanesulfonamide] | 240
16 | C[C@@H]1c2nn(C)c(-c3cncc(C(F)(F)F)n3)c2CCN1C(=O)c1cc(F)cc(N2CC3(C2)CS(=O)(=O)C3)c1Cl [Example 66, [2-chloro-3-(2,2-dioxo-2λ^6-thia-6-azaspiro[3.3]heptan-6-yl)-5-fluoro-phenyl]-[(7R)-2,7-dimethyl-3-[6-(trifluoromethyl)pyrazin-2-yl]-5,7-dihydro-4H-pyrazolo[3,4-c]pyridin-6-yl]methanone] | 3240
17 | C[C@H]1c2nn(C)c(-c3cc(F)cc(F)c3)c2CCN1C(=O)c1cc(F)cc(C2=CC(Cl)C(=O)N=C2)c1Cl (stereo partly drawn) [Example 98, 3-chloro-5-[2-chloro-3-[(7S)-3-(3,5-difluorophenyl)-2,7-dimethyl-5,7-dihydro-4H-pyrazolo[3,4-c]pyridine-6-carbonyl]-5-fluoro-phenyl]-3H-pyridin-2-one] | 5.97
18 | C[C@@H]1c2nn(C)c(-c3cc(F)cc(F)c3)c2CCN1C(=O)c1cc(F)cc(N2CC3(C2)CS(=O)(=O)C3)c1Cl [Example 21, [2-Chloro-3-(2,2-dioxo-2λ^6-thia-6-azaspiro[3.3]heptan-6-yl)-5-fluoro-phenyl]-[(7R)-3-(3,5-difluorophenyl)-2,7-dimethyl-5,7-dihydro-4H-pyrazolo[3,4-c]pyridine-6-yl]methanone] | 1430
